Where two headings read alike, the source gives them in different places.
Tests used:
[1] = for EE % / LC %: liposome DSPC:Chol:DSPE-PEG2000 3:2:0.15, drug feed ratio 20% (drug:lipids w/w)
Protocol: This was followed by incubating the liposome suspension in the suspended CXCR4 antagonists using a feed ratio of 20%. The non-incorporated drug was removed by a PD-10 column.
To perform the drug loading, Mavorixafor (MAV or AMD11070) was prepared as stock solution in PBS and added at 20% w/w over the total wt. of the lipids. The MAV/liposome mixed solution was then heated at 65° C. for 1 h then cooled at room temperature for 30 minutes. The separation of encapsulated liposomal MAV (L-MAV) and non-encapsulated MAV (free MAV) was again, through the use of PD10 size exclusion column.
The elution profile of the free MAV is pre-determined by eluting free MAV through the PD10 and measuring the UV absorbance for each elution fraction at λmax 275 nm. In a typical run a 95%+ MAV recovery will be found between 10-20 mL fractions. The free-MAV fractions was collected and combined to quantify the free-MAV by UV at λmax 275 nm. Again, the L-MAV was collected from elution 2.75-5.75 mL (3 mL in total), the free-MAV was collected from 10-20 mL fractions.
Based on the free-MAV quantification, the drug loading of L-MAV was back calculated by subtracting the free MAV from the initial MAV feeding=20% w/w. […] Based on the drug loaded L-MAV concentration (mg/mL), L-MAV was concentrated by using 50 mL VIVA-spin tubes at 30 kDa cut-off to a final concentration of 0.1 mg/mL (=0.5 mg/kg per 200 μL injection for a 20 g mouse).

X4 HIV strains = settings: read-out: inhibits the replication of X4 HIV strains (IC50); cited from earlier work
[2] = Remote loading of CXCR4 antagonists in silicasomes (encapsulation efficiency, loading capacity); type: physicochemical; settings: for EE % / LC %: silicasome
Protocol: Following the application of a lipid bilayer, we used the weak basic properties of the of CXCR4 antagonists (AMD3100, AMD3465, AMD070) to attempt silicasome remote loading. To optimize the loading efficiency, two type of trapping agents, triethylammonium sucrose octasulfate (TEA8SOS) and ammonium sulfate ((NH4)2SO4) were tested. Briefly, for lipid coating, 40 mg/mL of the purified MSNPs were soaked in trapping agent solution (80 mM TEA8SOS or 300 mM (NH4)2SO4)) and were added to an ˜50% (w/v) lipids mixture (DSPC/Chol/DSPE-PEG2000, in the molar ratio of 3:2:0.15) solution in ethanol. The MSNP:lipid ratio was 1:1.25 (w/w). The suspension was sonicated using probe sonication (Ultrasonic Processor Model VCX130, 40% amplitude) at a 15 s/15 s on/off cycle.
The free trapping agent was removed through size exclusion chromatography using Sepharose CL-4B resin with a HEPES-buffered dextrose solution (5 mM HEPES, 5% dextrose, pH 6.5) for elution. For drug import, trapping agent-loaded particles were mixed with drug and incubated at 65° C. for 0.5 hour. The drug-laden silicasomes were purified by centrifugation to remove the free drug and liposomes; then filtered with a 0.2 μm membrane for sterilization. The drug concentration was determined by either UV spectroscopy or HPLC. Particle hydrodynamic size and zeta potential were measured by a ZETAPALS instrument (Brookhaven Instruments Corporation). The final product was visualized by cryoEM (TF20 FEI Tecnai-G2) to confirm the uniformity and integrity of the coated lipid bilayer.

KPC tumors = assay: Orthotopic KPC model: tumor weight and immunophenotyping; type: in vivo, mice
4T1 tumors = assay: Orthotopic 4T1 TNBC tumor model; settings: for tumor shrinkage / tumor size: orthotopic 4T1, IV administration
Description: Orthotopic 4T1 tumors were established as described in FIGS. 2-4.

EMT6 tumors = assay: Orthotopic EMT6 breast cancer model; type: in vivo, mouse (Balb/c)
human PDAC slices = settings: cited from earlier work
[3] = tested on: metastatic BC models (including 4T1); settings: in vivo; cited from earlier work
[4] = (NH4)2SO4, drug feed ratio 50% (drug:MSNP w/w)
[5] = TEA8SOS, drug feed ratio 50% (drug:MSNP w/w)
[6] = TEA8SOS, drug feed ratio 10% (drug:MSNP w/w)
[7] = TEA8SOS, drug feed ratio 20% (drug:MSNP w/w)

| EE % ([1]; (NH4)2SO4) [%] | LC % ([1]; (NH4)2SO4) [%] | EE % ([1]; TEA8SOS) [%] | LC % ([1]; TEA8SOS) [%] | EE % [2, 4] [%] | LC % [2, 4] [%] | EE % [2, 5] [%] | LC % [2, 5] [%] | Structure (SMILES) | further results |
| --- | --- | --- | --- | --- | --- | --- | --- | --- | --- |
| 55.8 | 11.2 | 84.3 | 16.9 | 68 | 34 | 70 | 35 | NCCCCN(Cc1nc2ccccc2[nH]1)[C@H]1CCCc2cccnc21 [AMD11070, Mavorixafor] | CXCR4 staining intensity (immunohistochemistry) (KPC tumors): encapsulated but not free AMD11070 delivery could significantly increase CXCR4 staining intensity; Typical MAV loading ([1]; liposome, 240 mM (NH4)2SO4, MAV feeding 20% w/w, back calculated from free MAV): 8-15 % w/w; best loading capacity (LC) in liposomes ([1]; liposomes): 17%; T cell exclusion in the tumor margin (immunohistochemistry) (4T1 tumors; 4T1 breast cancer tumors): interference in T cell exclusion in the margin; CD8+ spatial distribution during mIHC analysis (4T1 tumors; orthotopic 4T1): failed to show a significant effect; lung metastasis (IVIS imaging of explanted lungs) (4T1 tumors; orthotopic 4T1): significant metastasis reduction; tumor shrinkage / tumor size (4T1 tumors; listed as Free AMD11070): leads to tumor shrinkage; tumor shrinkage / tumor size (4T1 tumors; listed as free AMD11070): tumor shrinkage could be obtained; lung metastasis (IVIS imaging of explanted lungs) (4T1 tumors; orthotopic 4T1, listed as free AMD11070): significant impact on lung metastases; tumor growth / tumor shrinkage (EMT6 tumors): neither free nor L-AMD11070 were able to interfere in tumor growth; loading capacity ([2]; silicasome in which sucrose sulfate was used (FIG. 11)): 20%; EE % [2, 6]: 95%; LC % [2, 6]: 9.5%; EE % [2, 7]: 85%; LC % [2, 7]: 17% |
| 19 | 3.8 | 42.4 | 8.5 | 27 | 13.5 | 51 | 25.5 | c1cc(CN2CCCNCCNCCCNCC2)ccc1CN1CCCNCCNCCCNCC1 [AMD3100, Plerixafor] | CTL migration to the juxta-tumoral PDAC compartment (human PDAC slices; tumor cell slices): improve CTL migration to the juxta-tumoral PDAC compartment; CD8+ T-cell-mediated elimination of EpCAM+ PDAC cancer cells (human PDAC slices; tumor slice culture): did not exert similar effects; CTL recruitment [3]: increase CTL recruitment; blood perfusion [3]: improve blood perfusion; desmoplasia [3]: decrease desmoplasia; immunosuppression [3]: decrease immunosuppression; metastatic spread [3]: limit metastatic spread |

| Structure (SMILES) | EE % ([1]; (NH4)2SO4) [%] | LC % ([1]; (NH4)2SO4) [%] | EE % ([1]; TEA8SOS) [%] | LC % ([1]; TEA8SOS) [%] | EE % [2, 4] [%] | LC % [2, 4] [%] | EE % [2, 5] [%] | LC % [2, 5] [%] | further results |
| --- | --- | --- | --- | --- | --- | --- | --- | --- | --- |
| c1ccc(CNCc2ccc(CN3CCCNCCNCCCNCC3)cc2)nc1 [AMD3465] | 68.4 | 13.7 | 37.4 | 7.5 | 34.5 | 17.3 | 25 | 12.5 | IC50 (X4 HIV strains): 1 to 10 nM |

Source: patent US20260069538A1, “CXCR4 ANTAGONIST LOADED LIPOSOMES AND SILICASOMES” (The Regents of the University of California, priority 2021, published 2026)
